# Tests used:
# [1] = Compound stability in rat liver microsomes; format: in vitro ADME; conditions: for half-life: pH 7.4, 37° C., NADPH, read-out: Rat T1/2; for CLint scaled: pH 7.4, in vivo CLint extrapolated
# Description: Human or rat liver microsomes incubations were conducted in duplicate in polypropylene tubes. The typical incubation mixtures consisted of human or rat liver microsomes (0.5 mg protein/mL), compounds of interest (5 μM) and NADPH (1.0 mM) in a total volume of 200 μL potassium phosphate buffer (PBS, 100 mM, pH 7.4). Compounds were dissolved in DMSO and diluted with PBS such that the final concentration of DMSO was 0.05%. The enzymatic reactions were commenced with the addition of protein after a 3-min preincubation and incubated in a water bath open to the air at 37° C. Reactions were terminated at various time points (0, 5, 10, 15, 30, 60 min) by adding equal volume of ice-cold acetonitrile. The samples were stored at −80° C. until LC/MS/MS assays.
# The concentrations of compounds in the incubation mixtures of human or rat liver microsomes were determined by a LC/MS/MS method. The ranges of the linearity in the concentration range were determined for each tested compounds.
# A parallel incubation was performed using denatured microsomes as the negative control, and reactions were terminated at various time points (0, 15, 60 min) after incubation at 37° C.
# Verapamil (1 μM) was selected as the positive control, and reactions were terminated at various time points (0, 5, 10, 15, 30, 60 min) after incubation at 37° C. Both positive and negative control samples were included in each assay to ensure the integrity of the microsomal incubation system.
# In addition, the stability date of compound in human and rat liver microsomes was also obtained through the following method. Human or rat liver microsomes incubations were conducted in duplicate in polypropylene tubes. The typical incubation mixtures consisted of human or rat liver microsomes (0.5 mg protein/mL), compounds of interest (1.5 μM) and EDTA (1.0 mM) in a total volume of 30 μL potassium phosphate buffer (PBS, 100 mM, pH 7.4). Compounds were dissolved in DMSO and diluted with PBS such that the final concentration of DMSO was 0.2%. The enzymatic reactions were commenced with the addition of 15 μL NADPH (final concentration: 2 mM) after a 10-min preincubation and incubated in a water bath open to the air at 37° C. Reactions were terminated at various time points (0, 15, 30, 60 min) by adding 135 μL acetonitrile (contain IS). The samples were centrifuged at 4000 rpm for 10 min to remove protein, the supernatant was stored at −80° C. until LC/MS/MS assays. Ketanserin (1 μM) was selected as the positive control, and reactions were terminated at various time points (0, 15, 30, 60 min) after incubation at 37° C. Both positive and negative control samples were included in each assay to ensure the integrity of the microsomal incubation system.
# The concentrations of compounds in human or rat liver microsome incubations were plotted as a percentage of the relevant zero time point control for each reaction. The in vivo CLint were extrapolated (ref.: Naritomi, Y.; Terashita, S.; Kimura, S.; Suzuki, A.; Kagayama, A.; and Sugiyama, Y.; Prediction of human hepatic clearance from in vivo animal experiments and in vitro metabolic studies with liver microsomes from animals and humans. Drug Metab. Dispos., 2001, 29: 1316-1324).
# [2] = Pharmacokinetics after intravenous and oral administration in rats; format: in vivo; conditions: for clearance (CL) / AUC(0-t) / half-life / Vd: iv dosing, 1 mg/kg; for F: oral bioavailability; for AUC(0-t) / half-life / Vd: rat, plasma; for Vd: read-out: Vss
# Description: The LC/MS/MS system used in the analysis consists of an Agilent 1200 Series vacuum degasser, binary pump, well-plate autosampler, thermostatted column compartment, the Agilent G6430 Triple Quadrupole Mass Spectrometer with an electrosprayionization (ESI) source. Quantitative analysis was carried out using MRM mode. The parameters for MRM transitions are in the Table A.
# An Agilent XDB-C18, 2.1×30 mm, 3.5 μM column was used for the analysis. 5 μL of the samples were injected. Analysis condition: The mobile phase was 0.1% formic acid in water (A) and 0.1% formic acid in methanol (B). The flow rate was 0.4 mL/min. And the gradient of Mobile phase was in the Table B.
# Alternatively, an Agilent 6330 series LC/MS/MS spectrometer equipped with G1312A binary pumps, a G1367A autosampler and a G1314C UV detector were used in the analysis. An ESI source was used on the LC/MS/MS spectrometer. The analysis was done in positive ion mode as appropriate and the MRM transition for each analyte was optimized using standard solution. A Capcell MP-C18 100×4.6 mm I.D., […] column (Phenomenex, Torrance, Calif., USA) was used during the analysis. The mobile phase was 5 mM ammonia acetate, 0.1% MeOH in water (A): 5 mM ammonia acetate, 0.1% MeOH in acetonitrile (B) (70:30, v/v). The flow rate was 0.6 mL/min. Column was maintained at ambient temperature. 20 μL of the samples were injected.
# The compounds disclosed herein are assessed in pharmacokinetic studies in mice, rats, dogs or monkeys. The compounds are administered as a water solution, 2% HPMC+1% TWEEN®80 in water solution, 5% DMSO+5% solutol in saline, 4% MC suspension or capsule. For the intravenous administration, the animals are generally given at 1 or 2 mg/kg dose. For the oral (p.o.) dosing, mice and rats are generally given 5 or 10 mg/kg dose, and dogs and monkeys are generally given 10 mg/kg dose. The blood samples (0.3 mL) are drawn at 0.25, 0.5, 1.0, 2.0, 3.0, 4.0, 6.0, 8.0, 12 and 24 h time points or 0.083, 0.25, 0.5, 1.0, 2.0, 4.0, 6.0, 8.0 and 24 h time points and centrifuged at 3,000 or 4000 rpm for 2 to 10 min. The plasma solutions are collected, and stored at −20° C. or −70° C. until analyzed by LC/MS/MS as described above.
SMILES,half-life [1] [min],CLint scaled [1] [mL/min/kg],clearance (CL) [2] [mL/min/kg],F [2] [%],AUC(0-t) [2] [ng·h/mL],half-life [2] [min],Vd [2] [L/kg]
"Cn1cc(Nc2ncc(Cl)c(NC3CCN(c4ccc(C#N)cn4)CC3)n2)cn1 [Ex. 1, 6-(4-((5-chloro-2-((1-methyl-1H-pyrazol-4-yl)amino)pyrimidin-4-yl)amino)piperidin-1-yl)nicotinonitrile]",27.7,89.7,3.83,136.8,4660,58.8,0.31
Cc1c2ccc(Nc3ncc(Cl)c(NC4CCN(c5ccc(C#N)cn5)CC4)n3)cc2nn1C [Ex. 4],23.2,107,7.17,78.76,2340,103,0.72
"CN(c1nc(Nc2cnn(C)c2)ncc1Cl)C1CCN(c2ccc(C#N)cn2)CC1 [Ex. 5, 6-(4-((5-chloro-2-((1-methyl-1H-pyrazol-4-yl)amino)pyrimidin-4-yl) (methyl)amino)piperidin-1-yl)nicotinonitrile]",16.5,150,29.7,182.46,572,30.6,0.67
"Cc1nn(C)cc1Nc1ncc(Cl)c(NC2CCN(c3ccc(C#N)cn3)CC2)n1 [Ex. 10, 6-(4-((5-chloro-2-((1,3-dimethyl-1H-pyrazol-4-yl)amino)pyrimidin-4-yl)amino)piperidin-1-yl)nicotinonitrile]",17.4,142,9.67,75.3,1740,43.2,0.63
"Cc1nn(C)cc1Nc1ncc(Cl)c(NC2CCN(c3ccc(C#N)nn3)CC2)n1 [Ex. 11, 6-(4-((5-chloro-2-((1,3-dimethyl-1H-pyrazol-4-yl)amino)pyrimidin-4-yl)amino)piperidin-1-yl)pyridazine-3-carbonitrile]",23.6,105,17.7,61.8,931,27,0.62
"Cc1c2ccc(Nc3ncc(Cl)c(NC4CCN(c5ccc(C#N)nn5)CC4)n3)cc2nn1C [Ex. 12, 6-(4-((5-chloro-2-((2,3-dimethyl-2H-indazol-6-yl)amino)pyrimidin-4-yl)amino)piperidin-1-yl)pyridazine-3-carbonitrile]",18.9,131,11.3,39.2,1480,29.4,0.5
"Cc1cc(Nc2ncc(Cl)c(NC3CCN(c4ccc(C#N)nn4)CC3)n2)nn1C [Ex. 13, 6-(4-((5-chloro-2-((1,5-dimethyl-1H-pyrazol-3-yl)amino)pyrimidin-4-yl)amino)piperidin-1-yl)pyridazine-3-carbonitrile]",9.68,257,,,,,
